Results on 30 molecules are retold here after patent US9382197B2, “Substituted hydroxamic acids and uses thereof” (Millennium Pharmaceuticals, Inc., priority 2010, dated 2016).

The first assay concerns the target T1, purified human HDAC6 (Homo sapiens, UniProt Q9UBN7).
T1 construct: purchased BPS Bioscience 5006
T1 sequence (Q9UBN7 1-1215): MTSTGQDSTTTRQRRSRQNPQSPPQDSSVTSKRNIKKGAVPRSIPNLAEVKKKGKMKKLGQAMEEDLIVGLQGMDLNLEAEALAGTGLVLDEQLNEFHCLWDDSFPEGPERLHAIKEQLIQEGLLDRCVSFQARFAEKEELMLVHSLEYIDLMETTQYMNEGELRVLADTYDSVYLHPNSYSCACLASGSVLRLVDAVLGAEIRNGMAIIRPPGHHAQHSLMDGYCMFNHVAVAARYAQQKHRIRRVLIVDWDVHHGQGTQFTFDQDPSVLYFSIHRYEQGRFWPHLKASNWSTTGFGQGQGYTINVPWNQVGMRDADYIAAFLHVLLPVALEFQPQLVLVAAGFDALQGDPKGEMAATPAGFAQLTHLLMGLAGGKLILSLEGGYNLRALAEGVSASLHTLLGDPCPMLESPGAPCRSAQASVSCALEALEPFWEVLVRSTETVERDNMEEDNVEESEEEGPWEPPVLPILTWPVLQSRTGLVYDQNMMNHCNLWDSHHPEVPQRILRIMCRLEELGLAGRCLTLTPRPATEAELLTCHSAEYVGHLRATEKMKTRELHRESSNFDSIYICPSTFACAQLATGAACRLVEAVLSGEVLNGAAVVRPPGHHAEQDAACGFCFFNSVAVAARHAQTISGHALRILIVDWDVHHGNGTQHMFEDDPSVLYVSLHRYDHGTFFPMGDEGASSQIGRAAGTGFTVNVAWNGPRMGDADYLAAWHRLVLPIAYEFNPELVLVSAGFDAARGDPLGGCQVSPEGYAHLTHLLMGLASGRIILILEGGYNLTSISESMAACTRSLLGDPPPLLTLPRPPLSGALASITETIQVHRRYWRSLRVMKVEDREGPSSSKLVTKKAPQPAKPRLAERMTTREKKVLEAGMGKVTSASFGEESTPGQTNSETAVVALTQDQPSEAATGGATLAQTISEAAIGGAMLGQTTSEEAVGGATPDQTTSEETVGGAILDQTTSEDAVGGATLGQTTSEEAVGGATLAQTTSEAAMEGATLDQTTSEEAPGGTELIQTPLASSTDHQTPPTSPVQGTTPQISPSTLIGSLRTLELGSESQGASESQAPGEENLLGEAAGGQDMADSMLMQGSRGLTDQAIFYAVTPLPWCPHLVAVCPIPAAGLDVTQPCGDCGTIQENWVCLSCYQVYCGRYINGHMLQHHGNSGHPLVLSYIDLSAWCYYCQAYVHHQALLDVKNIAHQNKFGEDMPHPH
Kind of assay: HDAC6 Enzyme Assay. It counts as biochemical. Particulars: bin: greater than 500 nM and less than 1 μM (lower bound in nM, upper bound in μM). The protocol:
To measure the inhibition of HDAC6 activity, purified human HDAC6 (BPS Bioscience; Cat. No. 5006) is incubated with substrate Ac-Arg-Gly-Lys(Ac)-AMC peptide (Bachem Biosciences; Cat. No. 1-1925) for 1 hour at 30° C. in the presence of test compounds or vehicle DMSO control. The reaction is stopped with the HDAC inhibitor trichostatin A (Sigma; Cat. No. T8552) and the amount of Arg-Gly-Lys-AMC generated is quantitated by digestion with trypsin (Sigma; Cat. No. T1426) and subsequent measurement of the amount of AMC released using a fluorescent plate reader (Pherastar; BMG Technologies) set at Ex 340 nm and Em 460 nm. Concentration response curves are generated by calculating the fluorescence increase in test compound-treated samples relative to DMSO-treated controls, and enzyme inhibition (IC50) values are determined from those curves.
In the case of `CC(C)(C)C(NC(=O)c1cccc(S(C)(=O)=O)c1)c1ccc(C(=O)NO)cc1` (stereo not drawn) [Compound I-75, N-(1-{4-[(hydroxyamino)carbonyl]phenyl}-2,2-dimethylpropyl)-3-(methylsulfonyl)benzamide], the IC50 is 500 to 1000 nM. With `CC(NC(=O)c1ccn(C)n1)c1cccc(C(=O)NO)c1` (stereo not drawn) [Compound I-81, N-(1-{3-[(hydroxyamino)carbonyl]phenyl}ethyl)-1-methyl-1H-pyrazole-3-carboxamide], the IC50 fell in the range of 500 to 1000 nM.

On to `Cc1cc(C)c(C(=O)NC(C)c2cccc(C(=O)NO)c2)[nH]1` (stereo not drawn) [Compound I-91, N-(1-{3-[(hydroxyamino)carbonyl]phenyl}ethyl)-3,5-dimethyl-1H-pyrrole-2-carboxamide], for which the IC50 fell in the range of 500 to 1000 nM. The same measure, in the same setting: to `CC(NC(=O)c1c2c(nn1C)CCCC2)c1cccc(C(=O)NO)c1` (stereo not drawn) [Compound I-101, N-(1-{3-[(hydroxyamino)carbonyl]phenyl}ethyl)-2-methyl-4,5,6,7-tetrahydro-2H-indazole-3-carboxamide] belongs 500 to 1000 nM.

Still in this assay, the particulars now being: bin: greater than 1 μM.
`CC(NC(=O)c1cc2oc(-c3ccc(C(F)(F)F)cc3)cc2n1C)c1cccc(C(=O)NO)c1` (stereo not drawn) [Compound I-72, N-(1-{3-[(hydroxyamino)carbonyl]phenyl}ethyl)-4-methyl-2-[4-(trifluoromethyl)phenyl]-4H-furo[3,2-b]pyrrole-5-carboxamide] had an IC50 of more than 1000 nM. As for `Cc1oc(-c2ccccc2)nc1CC(=O)NC(c1ccc(C(=O)NO)cc1)C(C)(C)C` (stereo not drawn) [Compound I-80, 4-(2,2-dimethyl-1-{[(5-methyl-2-phenyl-1,3-oxazol-4-yl)acetyl]amino}propyl)-N-hydroxybenzamide], the IC50 is more than 1000 nM. Still for that read-out and setting: with `CC(NC(=O)C12CC3CC(CC(C3)C1)C2)c1cccc(C(=O)NO)c1` (stereo not drawn) [Compound I-83, N-(1-{3-[(hydroxyamino)carbonyl]phenyl}ethyl)adamantane-1-carboxamide] the figure was more than 1000 nM; with `Cc1c(C(=O)NC(c2cccc(C(=O)NO)c2)C(C)C)oc2ccccc12` (stereo not drawn) [Compound I-93, N-(1-{3-[(hydroxyamino)carbonyl]phenyl}-2-methylpropyl)-3-methyl-1-benzofuran-2-carboxamide], more than 1000 nM.

`CC(NC(=O)c1nc2ccccc2n1C)c1cccc(C(=O)NO)c1` (stereo not drawn) [Compound I-100, N-(1-{3-[(hydroxyamino)carbonyl]phenyl}ethyl)-1-methyl-1H-benzimidazole-2-carboxamide] showed an IC50 of more than 1000 nM.

Staying with this assay, now noted: purified human HDAC6, substrate Ac-Arg-Gly-Lys(Ac)-AMC, 1 hour at 30° C.; reported as bins.
As for `CC(NC(=O)Nc1ccc2c(c1)OCO2)c1ccc(C(=O)NO)cc1` (stereo not drawn) [Compound I-71, 4-(1-{[(1,3-benzodioxol-5-ylamino)carbonyl]amino}ethyl)-N-hydroxybenzamide], the IC50 is less than 100 nM. `C[C@@H](NC(=O)C(C)(C)C)c1ccc(C(=O)NO)cc1` [Compound I-73, 4-{(1R)-1-[(2,2-dimethylpropanoyl)amino]ethyl}-N-hydroxybenzamide] yielded a half-inhibitory concentration (IC50) of less than 100 nM. With `CC(NC(=O)Nc1ccccc1F)c1ccc(C(=O)NO)cc1` (stereo not drawn) [Compound I-74, 4-[1-({[(2-fluorophenyl)amino]carbonyl}amino)ethyl]-N-hydroxybenzamide], the IC50 was less than 100 nM. The same measure, in the same setting: with `Cc1ccccc1CNC(=O)NC(C)c1ccc(C(=O)NO)cc1` (stereo not drawn) [Compound I-76, N-hydroxy-4-[1-({[(2-methylbenzyl)amino]carbonyl}amino)ethyl]benzamide] the figure was 100 to 500 nM; with `CC(C)C(NC(=O)c1cc(C(C)(C)C)nn1Cc1ccccc1)c1ccc(C(=O)NO)cc1` (stereo not drawn) [Compound I-77, 1-benzyl-3-tert-butyl-N-(1-{4-[(hydroxyamino)carbonyl]phenyl}-2-methylpropyl)-1H-pyrazole-5-carboxamide], 100 to 500 nM; with `Cc1ccc(S(=O)(=O)NC(C)c2ccc(C(=O)NO)cc2)c(C)c1` (stereo not drawn) [Compound I-78, 4-(1-{[(2,4-dimethylphenyl)sulfonyl]amino}ethyl)-N-hydroxybenzamide], 100 to 500 nM.

In turn, `CCC[C@@H](NC(=O)c1cc2ccccc2o1)c1ccc(C(=O)NO)cc1` [Compound I-79, N-((1R)-1-{4-[(hydroxyamino)carbonyl]phenyl}butyl)-1-benzofuran-2-carboxamide] came in with an IC50 of less than 100 nM. On the same count and under the same terms, with `Cc1cc(C(=O)NC(C)c2cccc(C(=O)NO)c2)nn1C` (stereo not drawn) [Compound I-84, N-(1-{3-[(hydroxyamino)carbonyl]phenyl}ethyl)-1,5-dimethyl-1H-pyrazole-3-carboxamide] the figure was 100 to 500 nM; with `Cc1cccc(NC(=O)NC(C)c2ccc(C(=O)NO)cc2)c1` (stereo not drawn) [Compound I-85, N-hydroxy-4-[1-({[(3-methylphenyl)amino]carbonyl}amino)ethyl]benzamide], less than 100 nM; with `Cc1nn(C)cc1C(=O)NC(c1ccc(C(=O)NO)cc1)C(C)(C)C` (stereo not drawn) [Compound I-86, N-(1-{4-[(hydroxyamino)carbonyl]phenyl}-2,2-dimethylpropyl)-1,3-dimethyl-1H-pyrazole-4-carboxamide], 100 to 500 nM. The same measure, in the same setting: to `CC(C)(C)C(NC(=O)c1cnccn1)c1ccc(C(=O)NO)cc1` (stereo not drawn) [Compound I-87, N-(1-{4-[(hydroxyamino)carbonyl]phenyl}-2,2-dimethylpropyl)pyrazine-2-carboxamide] belongs 100 to 500 nM; to `CC(NC(=O)C1CCCC1)c1ccc(C(=O)NO)cc1` (stereo not drawn) [Compound I-88, 4-{1-[(cyclopentylcarbonyl)amino]ethyl}-N-hydroxybenzamide], less than 100 nM. Same read-out and setting: to `CC(NC(=O)Nc1cc(Cl)ccc1Cl)c1ccc(C(=O)NO)cc1` (stereo not drawn) [Compound I-89, 4-[1-({[(2,5-dichlorophenyl)amino]carbonyl}amino)ethyl]-N-hydroxybenzamide] belongs less than 100 nM. As for `C[C@@H](NC(=O)c1ccc(-c2ccccc2)cc1)c1ccc(C(=O)NO)cc1` [Compound I-92, N-((1R)-1-{4-[(hydroxyamino)carbonyl]phenyl}ethyl)biphenyl-4-carboxamide], the IC50 was less than 100 nM. As for `CC(C)C(NC(=O)c1cc2ccccc2s1)c1ccc(C(=O)NO)cc1` (stereo not drawn) [Compound I-94, N-(1-{4-[(hydroxyamino)carbonyl]phenyl}-2-methylpropyl)-1-benzothiophene-2-carboxamide], the IC50 is less than 100 nM. Still for that read-out and setting: to `CC(C)[C@@H](NC(=O)c1cc(Cl)c(Cl)n1C)c1ccc(C(=O)NO)cc1` [Compound I-96, 4,5-dichloro-N-((1R)-1-{4-[(hydroxyamino)carbonyl]phenyl}-2-methylpropyl)-1-methyl-1H-pyrrole-2-carboxamide] belongs less than 100 nM. The same measure, in the same setting: to `CC(NC(=O)c1cc2ccccc2s1)c1cccc(C(=O)NO)c1` (stereo not drawn) [Compound I-97, N-(1-{3-[(hydroxyamino)carbonyl]phenyl}ethyl)-1-benzothiophene-2-carboxamide] belongs 100 to 500 nM; to `CC(NC(=O)c1cc2ccccc2n1C)c1ccc(C(=O)NO)cc1` (stereo not drawn) [Compound I-98, N-(1-{4-[(hydroxyamino)carbonyl]phenyl}ethyl)-1-methyl-1H-indole-2-carboxamide], less than 100 nM; to `O=C(NO)c1ccc([C@H](NC(=O)c2cc3ccccc3s2)c2ccccc2)cc1` [Compound I-99, N-[(R)-{4-[(hydroxyamino)carbonyl]phenyl}(phenyl)methyl]-1-benzothiophene-2-carboxamide], less than 100 nM.

`C[C@@H](NC(=O)c1cccn1C)c1ccc(C(=O)NO)cc1` [Compound I-102, N-((1R)-1-{4-[(hydroxyamino)carbonyl]phenyl}ethyl)-1-methyl-1H-pyrrole-2-carboxamide] came in with an IC50 of less than 100 nM. For `Cc1ccc(NC(=O)NC(C)c2ccc(C(=O)NO)cc2)cc1Cl` (stereo not drawn) [Compound I-103, 4-[1-({[(3-chloro-4-methylphenyl)amino]carbonyl}amino)ethyl]-N-hydroxybenzamide], the IC50 is less than 100 nM.
